Tested on: EpidermFT™ Skin Model (EFT-400) full thickness skin cultures
Assay: Affymetrix GeneChip HG U133 Plus 2.0 microarray global gene expression, agent-exposed vs untreated skin cultures
Format: cell-based, human
Conditions: 24 hr; for Direction / Fold change: Salicin 0.5%
[1] = Salicin 0.5% vs Untreated Control

OCc1ccccc1O[C@@H]1O[C@H](CO)[C@@H](O)[C@H](O)[C@H]1O [Salicin, 2-(Hydroxymethyl)phenyl β-D-glucospyranoside]
2.151: Fold change (1561042_at ITGB1)
2.098: Fold change (1559477_s_at MEIS1)
down: Direction ABCD3 (202850_at) [1] | Direction ABCG4 (207593_at) [1] | Direction ACACA (212186_at) [1] | Direction ACAD9 (224160_s_at) [1] | Direction ACOX3 (204241_at) [1] | Direction ADAMTSL4 (226071_at) [1] | Direction ADARB1 (203865_s_at) [1] | Direction AHNAK (211986_at) [1] | Direction AIF1L (223075_s_at) [1] | Direction AK1 (202587_s_at) [1] | Direction AK3L1 /// AK3L2 (204347_at) [1] | Direction ALDH5A1 (203609_s_at) [1] | Direction ALOX12 (207206_s_at) [1] | Direction AMACR (209426_s_at) [1] | Direction AMOTL2 (203002_at) [1] | Direction ANK3 (207950_s_at) [1] | Direction APPL2 (218218_at) [1] | Direction AQP3 (203747_at) [1] | Direction ARHGAP27 (225618_at) [1] | Direction ARL17 /// ARL17P1 (1555964_at) [1] | Direction ARPC1A (200950_at) [1] | Direction ASAP3 (222236_s_at) [1] | Direction ATP2B4 (212136_at) [1] | Direction ATXN3 (205416_s_at) [1] | Direction BAIAP2 (205293_x_at) [1] | Direction BCL11A (1559078_at) [1] | Direction BCL11B (222895_s_at) [1] | Direction BICD2 (1553021_s_at) [1] | Direction BLCAP (201032_at) [1] | Direction C1orf46 (216718_at) [1] | Direction C1orf71 (225551_at) [1] | Direction C1orf97 (224443_at) [1] | Direction C2orf7 (223312_at) [1] | Direction C4orf3 (224605_at) [1] | Direction C6orf105 (215100_at) [1] | Direction C12orf29 (228378_at) [1] | Direction C15orf52 (227272_at) [1] | Direction C17orf67 (236863_at) [1] | Direction C20orf177 (225313_at) [1] | Direction CALM1 /// CALM2 /// CALM3 (200653_s_at) [1] | Direction CALM1 /// CALM2 /// CALM3 (209563_x_at) [1] | Direction CAT (211922_s_at) [1] | Direction CENPT (218148_at) [1] | Direction CEP76 (52285_f_at) [1] | Direction CERK (218421_at) [1] | Direction CKB (200884_at) [1] | Direction CLCN5 (232127_at) [1] | Direction CLDN7 (202790_at) [1] | Direction CLIP1 (1558924_s_at) [1] | Direction CLN8 (229958_at) [1] | Direction CNDP2 (217752_s_at) [1] | Direction CNTN1 (211203_s_at) [1] | Direction CSNK2A2 (203575_at) [1] | Direction CTAGE4 (215549_x_at) [1] | Direction CXCL12 (203666_at) [1] | Direction CYB5R1 (202263_at) [1] | Direction CYCS (244546_at) [1] | Direction DBI (211070_x_at) [1] | Direction DDR1 (1007_s_at) [1] | Direction DDX50 (1568815_a_at) [1] | Direction DHRS4 /// DHRS4L2 (218021_at) [1] | Direction DMD (203881_s_at) [1] | Direction DOPEY2 (205248_at) [1] | Direction ELOVL3 (234513_at) [1] | Direction EPCAM (201839_s_at) [1] | Direction EPHB4 (202894_at) [1] | Direction EPHB6 (204718_at) [1] | Direction ERI2 (213365_at) [1] | Direction F2RL1 (206429_at) [1] | Direction FAM33A (225684_at) [1] | Direction FAR1 (224865_at) [1] | Direction FBXO3 (229955_at) [1] | Direction FBXO3 (238686_at) [1] | Direction FBXO9 (212991_at) [1] | Direction FBXO9 (1559094_at) [1] | Direction FIGNL1 (222843_at) [1] | Direction FKBP1B (206857_s_at) [1] | Direction FKBPL (219187_at) [1] | Direction FRAG1 (41858_at) [1] | Direction FUCA1 (202838_at) [1] | Direction FUT2 (210608_s_at) [1] | Direction GAB1 (225998_at) [1] | Direction GAS7 (202192_s_at) [1] | Direction GDAP1 (226269_at) [1] | Direction GNG4 (205184_at) [1] | Direction GPR1 (214605_x_at) [1] | Direction GPR137B (204137_at) [1] | Direction GSN (200696_s_at) [1] | Direction HES5 (239230_at) [1] | Direction HIGD1A (217845_x_at) [1] | Direction HN1 (222396_at) [1] | Direction HN1L (212115_at) [1] | Direction HSDL2 (209512_at) [1] | Direction ID2 (201565_s_at) [1] | Direction IDH2 (210045_at) [1] | Direction IL22RA1 (220056_at) [1] | Direction INPP5D (203332_s_at) [1] | Direction ITGA3 (201474_s_at) [1] | Direction JAG1 (209099_x_at) [1] | Direction JAG1 (216268_s_at) [1] | Direction JMJD7 /// JMJD7-PLA2G4B /// PLA2G4B (222256_s_at) [1] | Direction KCNK7 (224055_x_at) [1] | Direction KCTD15 (222668_at) [1] | Direction KIF1B (209234_at) [1] | Direction KIF1B (225878_at) [1]
2.141: Fold change (1554602_at RBM8A)
2.096: Fold change (1555270_a_at WFS1)
up: Direction (1554602_at RBM8A) | Direction (1555270_a_at WFS1) | Direction (1559477_s_at MEIS1) | Direction (1561042_at ITGB1)

Reference: patent US20120034613A1, “Apparatus and Method for Testing Relationships Between Gene Expression and Physical Appearance of Skin” (NSE Products, Inc., priority 2010, published 2012)
